The subject of experiment [1] is human blood. The experiment in a line: In vitro anticoagulant effect on human blood (APTT, CT2). As to conditions: concentration corresponding to 2 times the APTT of the blank control, human plasma. The procedure:
Test Example 2: Determination of In Vitro Anticoagulant Effect of the Compounds of the Present Invention on Human Blood
1. Experimental Materials
Plasma: Human blood was collected in blood collection tubes containing no anticoagulant, and then 3.8% sodium citrate (volume ratio 1:9) was added. The tubes were centrifuged at 2500 rpm for 10 minutes at room temperature, and then the plasma was collected and stored at −80° C.;
Reagents: APTT reagent (Activated partial thromboplastin time assay kit, SIEMENS, Art. No. B4218-1), calcium chloride solution;
Instrument: Coagulation instrument (SYSMEX, CA-500).
The divided plasma was melted at room temperature and mixed well. 10000 μM the test compound dissolved in 100% DMSO was diluted to 3000, 300, 200, 150, 75, 30, 10, 3, 0.3 μM with 100% DMSO, and the blank was 100% DMSO. The reagent, plasma, and compound were placed in corresponding positions in the coagulation instrument, and APTT detection of the compound was carried out.
Curve fitting was carried out by graphpad and CT2 was calculated, i.e., the concentration of the compound corresponding to 2 times the APTT of the blank control.

The target in experiment [2] is Coagulation Factor XIa protease (Homo sapiens (Human), UniProt P03951). The experiment in a line: Inhibition of Factor XIa detected by absorption photometry. The format is biochemical. As to conditions: absorbance at 405 nm, 10 minutes at 37° C. In outline:
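Read-out was absorbance at 405 nm after 10 min incubation at 37° C. Compound dilutions in 100% DMSO (200 to 0.002 μM) were combined with FXIa (2.5 μg/ml solution), then FXIa-specific chromogenic substrate (2 mM solution) was added; both are stock concentrations, not final.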

Sequence of Coagulation Factor XIa protease (P03951 388-625): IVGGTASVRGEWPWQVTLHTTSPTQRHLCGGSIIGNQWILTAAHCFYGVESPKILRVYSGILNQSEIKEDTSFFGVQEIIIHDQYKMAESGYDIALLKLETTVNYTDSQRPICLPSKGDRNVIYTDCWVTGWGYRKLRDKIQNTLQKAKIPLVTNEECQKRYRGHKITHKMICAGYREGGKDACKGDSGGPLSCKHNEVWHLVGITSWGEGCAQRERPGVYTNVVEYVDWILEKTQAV
Sequence of Coagulation Factor XIa protease (P03951 19-387 partner): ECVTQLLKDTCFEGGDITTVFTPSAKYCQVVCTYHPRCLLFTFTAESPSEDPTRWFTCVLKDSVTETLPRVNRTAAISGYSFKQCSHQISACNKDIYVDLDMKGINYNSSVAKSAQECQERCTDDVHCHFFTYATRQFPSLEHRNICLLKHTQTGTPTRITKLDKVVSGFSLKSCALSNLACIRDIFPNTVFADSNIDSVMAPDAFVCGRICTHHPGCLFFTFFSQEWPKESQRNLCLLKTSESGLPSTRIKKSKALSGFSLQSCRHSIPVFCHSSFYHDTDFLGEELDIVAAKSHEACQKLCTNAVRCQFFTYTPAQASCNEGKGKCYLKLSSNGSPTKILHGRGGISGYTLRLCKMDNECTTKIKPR

Turning to `COc1cn([C@@H](CCOC(C)(C)C)C(=O)Nc2ccc3nccnc3c2)c(=O)cc1-c1cc(Cl)ccc1-c1nc(C)no1` [Comparative Example 2, (S)-4-(tert-butoxy)-2-(4-(5-chloro-2-(3-methyl-1,2,4-oxadiazol-5-yl)phenyl)-5-methoxy-2-oxopyridin-1 (2H)-yl)-N-(quinoxalin-6-yl)butanamide, reference compound], the “CT2, concentration doubling APTT” value in experiment [1] (Table 3 comparison) came out at 13.1 µM.
`COCCC(C(=O)Nc1ccc2[nH]c(C(=O)O)cc2c1)n1cc(OC)c(-c2cc(Cl)ccc2C(C)=O)cc1=O` (centres unmarked) [Example 1, 5-(2-(4-(2-acetyl-5-chlorophenyl)-5-methoxy-2-oxopyridin-1(2H)-yl)-4-methoxybutanamido)-1H-indole-2-carboxylic acid]: the “CT2, concentration doubling APTT” value in experiment [1] (Table 2) is 4.4 µM. Besides, in experiment [2], the IC50 was found to be 34 nM.
As for `COCC[C@@H](C(=O)Nc1ccc2[nH]c(C(=O)O)cc2c1)n1cc(OC)c(-c2cc(Cl)ccc2C(C)=O)cc1=O` [Example 2, (S)-5-(2-(4-(2-acetyl-5-chlorophenyl)-5-methoxy-2-oxopyridin-1(2H)-yl)-4-methoxybutanamido)-1H-indole-2-carboxylic acid], the “CT2, concentration doubling APTT” value in experiment [1] (Table 2) is 2.9 µM. Moreover, in experiment [2], the IC50 is 19 nM.
Take `COCC[C@H](C(=O)Nc1ccc2[nH]c(C(=O)O)cc2c1)n1cc(OC)c(-c2cc(Cl)ccc2C(C)=O)cc1=O` [Example 3, (R)-5-(2-(4-(2-acetyl-5-chlorophenyl)-5-methoxy-2-oxopyridin-1 (2H)-yl)-4-methoxybutanamido)-1H-indole-2-carboxylic acid]: the “CT2, concentration doubling APTT” value in experiment [1] (Table 2) was greater than 10000 µM. The molecule further came in with an IC50 in experiment [2] of 1740 nM.
On to `COc1cn([C@H](Cc2ccccc2)C(=O)Nc2ccc(C(=O)O)cc2)c(=O)cc1-c1cc(Cl)ccc1C(C)=O` [Example 6, (R)-4-(2-(4-(2-acetyl-5-chlorophenyl)-5-methoxy-2-oxopyridin-1(2H)-yl)-3-phenylpropanamido)benzoic acid], for which the “CT2, concentration doubling APTT” value in experiment [1] (Table 2) is greater than 10000 µM.
Regarding `CCC(=O)c1ccc(Cl)cc1-c1cc(=O)n(C(Cc2ccccc2)C(=O)Nc2ccc(C(=O)O)cc2)cc1OC` (centres unmarked) [Example 8, 4-(2-(4-(5-chloro-2-propionylphenyl)-5-methoxy-2-oxopyridin-1(2H)-yl)-3-phenylpropanamido)benzoic acid], the “CT2, concentration doubling APTT” value in experiment [1] (Table 2) was found to be 6.4 µM. The molecule further came in with an IC50 in experiment [2] of 17 nM.
Turning to `COc1cn([C@@H](Cc2ccccc2)C(=O)Nc2ccc3nn(C)cc3c2)c(=O)cc1-c1cc(Cl)ccc1C(C)=O` [Example 20, (S)-2-(4-(2-acetyl-5-chlorophenyl)-5-methoxy-2-oxopyridin-1(2H)-yl)-N-(2-methyl-2H-indazol-5-yl)-3-phenylpropanamide], the “CT2, concentration doubling APTT” value in experiment [1] (Table 2) came to 6.5 µM. Besides, the IC50 in experiment [2] came out at 36 nM.
Regarding `CCNC(=O)c1ccc(NC(=O)[C@H](Cc2ccccc2)n2cc(OC)c(-c3cc(Cl)ccc3C(C)=O)cc2=O)cc1` [Example 37, (S)-4-(2-(4-(2-acetyl-5-chlorophenyl)-5-methoxy-2-oxopyridin-1 (2H)-yl)-3-phenylpropanamido)-N-ethylbenzamide], the “CT2, concentration doubling APTT” value in experiment [1] (Table 2) is 7.8 µM. This molecule yielded an IC50 in experiment [2] of 29 nM.
Regarding `COc1cn(C(Cc2ccccc2)C(=O)Nc2ccc(C(=O)O)cc2)c(=O)cc1-c1cc(Cl)ccc1C(=O)CC1CC1` (centres unmarked) [Example 39, 4-(2-(4-(5-chloro-2-(2-cyclopropylacetyl)phenyl)-5-methoxy-2-oxopyridin-1(2H)-yl)-3-phenylpropanamido)benzoic acid], the “CT2, concentration doubling APTT” value in experiment [1] (Table 2) was 8.3 µM. In experiment [2], this molecule came in with an IC50 of 38 nM.
With `COc1cn([C@H](Cc2ccccn2)C(=O)Nc2ccc(C(=O)O)cc2)c(=O)cc1-c1cc(Cl)ccc1C(C)=O` [Example 81, (R)-4-(2-(4-(2-acetyl-5-chlorophenyl)-5-methoxy-2-oxopyridin-1(2H)-yl)-3-(pyridin-2-yl)propanamido)benzoic acid], the “CT2, concentration doubling APTT” value in experiment [1] (Table 2) is greater than 10000 µM. Further, the midpoint of inhibition in experiment [2], the IC50, lay at 2680 nM.
In the same order, the values of `COc1cn([C@@H](Cc2ccccn2)C(=O)Nc2ccc(C(N)=O)cc2)c(=O)cc1-c1cc(Cl)ccc1C(C)=O` [Example 85, (S)-4-(2-(4-(2-acetyl-5-chlorophenyl)-5-methoxy-2-oxopyridin-1(2H)-yl)-3-(pyridin-2-yl)propanamido)benzamide] are 6.5 µM and 92 nM.
For the molecule `COc1cn([C@@H](Cc2cccc(C#N)c2)C(=O)Nc2ccc(C(=O)O)cc2)c(=O)cc1-c1cc(Cl)ccc1C(C)=O` [Example 89, (S)-4-(2-(4-(2-acetyl-5-chlorophenyl)-5-methoxy-2-oxopyridin-1(2H)-yl)-3-(3-cyanophenyl)propanamido)benzoic acid], in experiment [1] (Table 2), the “CT2, concentration doubling APTT” value was 5.7 µM. In experiment [2], the IC50 is 42 nM.
For the molecule `CCC(=O)c1ccc(Cl)cc1-c1cc(=O)n(C(Cc2ccn(C3CC3)n2)C(=O)Nc2ccc(C(=O)O)cc2)cc1OC` (centres unmarked) [Example 91, 4-(2-(4-(5-chloro-2-propionylphenyl)-5-methoxy-2-oxopyridin-1 (2H)-yl)-3-(1-cyclopropyl-1H-pyrazol-3-yl)propanamido)benzoic acid], the “CT2, concentration doubling APTT” value in experiment [1] (Table 2) was found to be 2.1 µM.
On to `CCC(=O)c1ccc(Cl)cc1-c1cc(=O)n([C@@H](Cc2ccn(C3CC3)n2)C(=O)Nc2ccc(C(=O)O)cc2)cc1OC` [Example 92, (S)-4-(2-(4-(5-chloro-2-propionylphenyl)-5-methoxy-2-oxopyridin-1 (2H)-yl)-3-(1-cyclopropyl-1H-pyrazol-3-yl)propanamido)benzoic acid], for which the “CT2, concentration doubling APTT” value in experiment [1] (Table 2) stood at 1.2 µM.
Take `CCC(=O)c1ccc(Cl)cc1-c1cc(=O)n([C@H](CCOC(C)(C)C)C(=O)Nc2ccc(C(=O)O)cc2)cc1OC` [Example 109, (R)-4-(4-(tert-butoxy)-2-(4-(5-chloro-2-propionylphenyl)-5-methoxy-2-oxopyridin-1(2H)-yl)butanamido)benzoic acid]: the “CT2, concentration doubling APTT” value in experiment [1] (Table 2) was greater than 10000 µM.
`[2H]C([2H])([2H])Oc1cn([C@@H](CCOC(C)(C)C)C(=O)Nc2ccc(C(=O)O)cc2)c(=O)cc1-c1cc(Cl)ccc1C(=O)CC` [Example 177, 4-[[(2S)-4-tert-butoxy-2-[4-(5-chloro-2-propionyl-phenyl)-2-oxo-5-(trideuteromethoxy)-1-pyridyl]butyryl]amino]benzoic acid]: the “CT2, concentration doubling APTT” value in experiment [1] (Table 2) is 1.5 µM.
Turning to `[2H]C([2H])([2H])Oc1cn([C@H](CCOC(C)(C)C)C(=O)Nc2ccc(C(=O)O)cc2)c(=O)cc1-c1cc(Cl)ccc1C(=O)CC` [Example 178, 4-[[(2R)-4-tert-butoxy-2-[4-(5-chloro-2-propionyl-phenyl)-2-oxo-5-(trideuteromethoxy)-1-pyridyl]butyryl]amino]benzoic acid], the “CT2, concentration doubling APTT” value in experiment [1] (Table 2) was greater than 10000 µM.
As for `[2H]C([2H])([2H])Oc1cn([C@@H](Cc2ccccc2)C(=O)Nc2ccc(C(=O)O)cc2)c(=O)cc1-c1cc(Cl)ccc1C(C)=O` [Example 179, 4-[[(2S)-2-[4-(2-acetyl-5-chloro-phenyl)-2-oxo-5-(trideuteromethoxy)-1-pyridyl]-3-phenyl-propionyl]amino]benzoic acid], the “CT2, concentration doubling APTT” value in experiment [1] (Table 2) stood at 3.3 µM.
The same measure, in the same setting: with `[2H]C([2H])([2H])Oc1cn([C@H](Cc2ccccc2)C(=O)Nc2ccc(C(=O)O)cc2)c(=O)cc1-c1cc(Cl)ccc1C(C)=O` [Example 180, 4-[[(2R)-2-[4-(2-acetyl-5-chloro-phenyl)-2-oxo-5-(trideuteromethoxy)-1-pyridyl]-3-phenyl-propionyl]amino]benzoic acid] the figure was greater than 10000 µM.
As for `[2H]c1c([2H])c([2H])c(C([2H])([2H])[C@@H](C(=O)Nc2ccc(C(=O)O)cc2)n2cc(OC)c(-c3cc(Cl)ccc3C(C)=O)cc2=O)c([2H])c1[2H]` [Example 181, 4-[[(2S)-2-[4-(2-acetyl-5-chloro-phenyl)-5-methoxy-2-oxo-1-pyridyl]-3,3-dideutero-3-(2,3,4,5,6-pentadeuterophenyl)propionyl]amino]benzoic acid], the “CT2, concentration doubling APTT” value in experiment [1] (Table 2) was 2.3 µM.
On to `[2H]C([2H])([2H])C(=O)c1ccc(Cl)cc1-c1cc(=O)n([C@@H](Cc2ccccc2)C(=O)Nc2ccc(C(=O)O)cc2)cc1OC` [Example 183, 4-[[(2S)-2-[4-[5-chloro-2-(2,2,2-trideuteroacetyl)phenyl]-5-methoxy-2-oxo-1-pyridyl]-3-phenyl-propionyl]amino]benzoic acid], for which the “CT2, concentration doubling APTT” value in experiment [1] (Table 2) was found to be 2.6 µM.
As for `[2H]C([2H])([2H])C(=O)c1ccc(Cl)cc1-c1cc(=O)n([C@H](Cc2ccccc2)C(=O)Nc2ccc(C(=O)O)cc2)cc1OC` [Example 184, 4-[[(2R)-2-[4-[5-chloro-2-(2,2,2-trideuteroacetyl)phenyl]-5-methoxy-2-oxo-1-pyridyl]-3-phenyl-propionyl]amino]benzoic acid], the “CT2, concentration doubling APTT” value in experiment [1] (Table 2) is greater than 10000 µM.
